Laboratory results from patent US7030137B2, “Substituted thiophenes with antibacterial activity” (Replidyne, Inc., priority 2003, dated 2006).
Values after ≈ are worked out from the molar mass of the structure shown.

Legend:
[1] = tested on: S. aureus, S. pneumoniae, and E. faecalis; assay: MIC against some strains of gram positive pathogens; format: cell-based
Protocol: (§1) Compounds of the present invention were assayed for antibacterial activity against a range of pathogenic organisms (strains of S aureus, S pneumoniae, E faecalis, H influenzae and M catarrhalis) in a standard MIC assay modified by the inclusion of cyclodextrin, to assist with solubility.

[2] = tested on: H. influenzae; assay: MIC H. influenzae (standard MIC assay modified by inclusion of cyclodextrin); format: cell-based; conditions: Haemophilus influenzae
Protocol: as §1

[3] = tested on: M catarrhalis and H. influenzae; assay: MIC against some strains of gram negative pathogens; format: cell-based; conditions: Haemophilus influenzae
Protocol: as §1

[4] = target: T1, recombinant H. influenzae MRS (Haemophilus influenzae, UniProt P43828); assay: Enzyme Inhibition (H. influenzae MRS) aminoacylation assay; format: biochemical; conditions: read-out: IC50 against H. influenzae MRS
T1 construct: made in house
Protocol: 2. Enzyme Inhibition (H. influenzae MRS)—aminoacylation assay
Compounds of the present invention may be assayed for their ability to inhibit the enzyme methionyl tRNA synthetase (MRS), using recombinant H. influenzae MRS(R. D. Fleischmann et al., Science, 269, 496–512, 1995), as follows:
The reaction is started by adding 20 μl appropriately diluted pure enzyme (pre-incubated with inhibitor) to 25 μl reaction mix for 10 min at room temperature. The reaction is terminated by the addition of 150 μl 167 mM sodium citrate, pH 2.15 containing phosphodiesterase (PDE) SPA beads (0.833 mg/ml). The binding of the radiolabelled product to the bead brings the isotope into close enough proximity to allow radiation from the tritium to excite the scintillant within the bead. Any unbound radiolabel is not close enough to the scintillant to allow this energy transfer, so no signal is generated. Following termination of the reaction, plates are spun at 2500 rpm for 5 min in a Mistral 3000E plate centrifuge (or alternatively allowed to stand for 1 hour). The assay is conducted in 96-well Optiplates (Packard). Plates are counted on a TopCount. (Packard 96 well counter).
Mixed E. coli MRE 600 tRNA and ATP were purchased from Boehringer-Mannheim, L-[methyl-^3H]methionine and phosphodiesterase scintillation proximity (SPA) beads from Amersham Pharmacia Biotech and other reagents from Sigma.

[5] = tested on: S. aureus; assay: MIC S. aureus (standard MIC assay modified by inclusion of cyclodextrin); format: cell-based; conditions: Staphylococcus aureus
Protocol: as §1

[6] = tested on: S. pneumo; assay: MIC S. pneumo (standard MIC assay modified by inclusion of cyclodextrin); format: cell-based; conditions: Streptococcus pneumoniae
Protocol: as §1

T1 sequence (P43828 whole entry): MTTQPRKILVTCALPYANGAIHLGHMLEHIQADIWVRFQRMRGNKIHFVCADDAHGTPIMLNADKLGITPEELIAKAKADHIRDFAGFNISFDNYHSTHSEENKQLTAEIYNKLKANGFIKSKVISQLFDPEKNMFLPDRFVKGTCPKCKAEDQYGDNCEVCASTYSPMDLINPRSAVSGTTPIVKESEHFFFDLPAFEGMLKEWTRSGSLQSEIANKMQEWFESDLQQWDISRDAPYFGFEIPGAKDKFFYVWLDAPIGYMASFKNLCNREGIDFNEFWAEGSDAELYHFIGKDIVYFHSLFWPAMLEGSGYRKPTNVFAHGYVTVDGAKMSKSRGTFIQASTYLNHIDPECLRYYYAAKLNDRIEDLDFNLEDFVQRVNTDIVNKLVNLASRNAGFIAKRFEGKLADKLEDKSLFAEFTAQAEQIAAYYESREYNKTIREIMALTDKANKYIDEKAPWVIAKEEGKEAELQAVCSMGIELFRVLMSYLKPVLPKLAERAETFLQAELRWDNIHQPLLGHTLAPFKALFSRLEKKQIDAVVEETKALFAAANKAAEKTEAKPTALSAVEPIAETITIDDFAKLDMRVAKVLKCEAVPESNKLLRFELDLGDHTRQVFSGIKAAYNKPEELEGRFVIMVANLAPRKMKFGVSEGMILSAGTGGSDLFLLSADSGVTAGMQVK

MIC [1] | MIC [2] | MIC [3] | IC50 [4] | MIC [5] | MIC [6] | SMILES
0.06 to 0.5 µg/mL (≈ 0.14 to 1.16 µM) | 8 µg/mL (≈ 18.6 µM) | 0.13 to 8 µg/mL (≈ 0.303 to 18.6 µM) | ≤ 200 nM | 0.06 µg/mL (≈ 0.14 µM) | 0.25 µg/mL (≈ 0.582 µM) | C=C(F)c1sc(CNCCCNc2nc3cscc3[nH]2)c(C)c1Br [Example 21, N-(4-bromo-5-(1-fluorovinyl)-3-methylthiophen-2-ylmethyl)-N′-(1H-thieno[3,4-d]imidazol-2-yl)propane-1,3-diamine]
0.06 to 0.5 µg/mL (≈ 0.129 to 1.08 µM) | 8 µg/mL (≈ 17.2 µM) | 0.13 to 8 µg/mL (≈ 0.28 to 17.2 µM) | ≤ 200 nM | 0.13 µg/mL (≈ 0.28 µM) | 0.25 µg/mL (≈ 0.539 µM) | Cc1c(CNCCCNc2nc3cscc3[nH]2)sc(Br)c1Br [Example 18, N-(4,5-Dibromo-3-methylthiophen-2-ylmethyl)-N′-(1H-thieno[3,4-d]imidazol-2-yl)propane-1,3-diamine]
